Test results taken from patent US4605744A, “Imidazole derivatives” (Hoffmann-La Roche Inc., priority 1985, dated 1986).
Where two headings read alike, the source gives them in different places.

What was measured:
P. aeruginosa 8710 = assay: In vivo antibacterial activity (PD50); settings: Pseudomonas aeruginosa, 8710, sc
E. cloacae 6951 = assay: In vivo antibacterial activity (PD50); settings: Enterobacter cloacae, 6951, sc, 2 treatments
P. aeruginosa 6720 = assay: In vivo antibacterial activity (PD50); settings: Pseudomonas aeruginosa, 6720, sc, 2 treatments
S. pneumoniae 6302 = assay: In vivo antibacterial activity (PD50); settings: Streptococcus pneumoniae, 6302, sc, challenge 1000 LD50s, 1 treatment, Table 11
P. aeruginosa 6799 = assay: In vivo antibacterial activity (PD50); settings: Pseudomonas aeruginosa, 6799, sc, read-out: PD50
S. aureus Smith = assay: In vivo antibacterial activity (PD50); settings: Staphylococcus aureus, sc, challenge 70 LD50s, 2 treatments, Table 11
S. marcescens S3 = assay: In vivo antibacterial activity (PD50); settings: Serratia marcescens, S3; sc; challenge 32 LD50s; 2 treatments; Table 11; read-out: PD50
P. aeruginosa 6719 = assay: In vivo antibacterial activity (PD50); settings: Pseudomonas aeruginosa, 6719, sc
C. freundii 8ASM = assay: In vivo antibacterial activity (PD50); settings: Citrobacter freundii, sc, challenge 1000 LD50s, 1 treatment, Table 11
E. aerogenes 8 = assay: In vivo antibacterial activity (PD50); settings: Klebsiella aerogenes, 8, sc, read-out: PD50, sc, 2 treatments
P. aeruginosa 503-56 = assay: In vivo antibacterial activity (PD50); settings: Pseudomonas aeruginosa, 50356, sc, challenge 50 LD50s, 2 treatments, Table 11
K. pneumoniae HE7 = assay: In vivo antibacterial activity (PD50); settings: Klebsiella pneumoniae, HE7, sc, 2 treatments
S. faecalis C1 = assay: In vivo antibacterial activity (PD50); settings: Enterococcus faecalis, C1; sc; challenge 10 LD50s; 1 treatment; Table 11
E. coli 387-1 = assay: In vivo antibacterial activity (PD50); settings: Escherichia coli, 3871; sc; challenge 127 LD50s; 1 treatment; Table 11
P. mirabilis 190 = assay: In vivo antibacterial activity (PD50); settings: Proteus mirabilis, sc, challenge 10^4 LD50s, 1 treatment, Table 11
S. schottmuelleri = assay: In vivo antibacterial activity (PD50); settings: sc; challenge 163 LD50s; 1 treatment; Table 11
Experimental: (§1) In Tables 9-14, the results of the in vivo activity against certain microorganisms of compounds I, M and N as given. […] The results in these Tables and the PD50 's were determined by the procedure set forth on page 160 in Beskid et al., Antimicrobial Agents and Chemotherapy, Vol. 20, No. 2 pp. 159-167 (Aug. 1981) for "in vivo studies".

E. cloacae 214 = assay: In vivo antibacterial activity (PD50); settings: Enterobacter cloacae, sc, challenge 3.8 LD50s, 2 treatments, Table 11
Experimental: as §1

E. coli 257 = assay: In vivo antibacterial activity (PD50); settings: Escherichia coli, 257, sc, challenge >10^4 LD50s, 1 treatment
P. aeruginosa 6148B = assay: In vivo antibacterial activity (PD50); settings: Pseudomonas aeruginosa, sc
K. pneumoniae 8357 = assay: animal or person; assay type: in vivo; settings: Klebsiella pneumoniae, 8357, sc, read-out: PD50
E. coli 5152 = assay: In vivo antibacterial activity (PD50); settings: Escherichia coli, 5152, sc, 2 treatments
P. vulgaris 100 = assay: In vivo antibacterial activity (PD50); settings: Proteus vulgaris; sc; challenge 100 LD50s; 1 treatment; Table 11
S. marcescens SM = assay: In vivo antibacterial activity (PD50); settings: Serratia marcescens; sc; challenge 489 LD50s; 2 treatments; Table 11
S. pyogenes 4 = assay: In vivo antibacterial activity (PD50); settings: Streptococcus pyogenes, 4, sc, sc, 2 treatments, read-out: PD50
E. coli 736 = assay: In vivo activity alone and in combination (PD50, FIC); settings: Escherichia coli, sc, alone
Experimental: as §1
(§2) In the Tables, the fractional inhibitory concentration index (FIC) for synergistic combination of a compound of this invention (X) with known antibiotic compound (Y) is determined by the following formula:
(§3) FIC=(PD50 (X combination)/PD50 (X alone)+(PD50 (Y
(§4) combination)/PD50 (Y alone)
(§5) An FIC of ≤0.60 is indicative of synergy. The synergy rating in the Tables is as follows:
(§6) In the combination, the parts are parts by weight, i.e. 10 to 1 is 10 parts by weight to 1 part by weight.

K. pneumoniae 503-990A = assay: as above; settings: sc; for ED50: Klebsiella pneumoniae, 503990A, alone
Experimental: as §1, §2, §3, §4, §5, §6

E. coli BC5524 = assay: as above
Experimental: as §1, §2, §3, §4, §5, §6

E. cloacae 4633 = assay: as above; settings: Enterobacter cloacae, 4633, sc, read-out: PD50 (alone)
Experimental: as §1, §2, §3, §4, §5, §6

Question: Which results are given for `CO/N=C(\C(=O)N[C@@H]1C(=O)N2C(C(=O)O)=C(CSc3nc(=O)c(=O)[nH]n3C)CS[C@H]12)c1csc(N)n1` [Ceftriaxone, ceftriaxone]?
Answer: ED50 (P. aeruginosa 8710; alone, challenge 1738 LD50s, Table 13, read-out: PD50 (alone)): 41 mg/kg; ED50 (P. aeruginosa 8710; challenge >10^4 LD50s, 2 treatments, Table 11, read-out: PD50): 31 mg/kg; ED50 (E. cloacae 6951; challenge 562 LD50s, Table 10): < 1 mg/kg; ED50 (E. cloacae 6951; challenge 3162 LD50s, Table 11): 0.03 mg/kg; ED50 (P. aeruginosa 6720; challenge 35 LD50s, Table 11): 15 mg/kg; ED50 (P. aeruginosa 6720; challenge 3511 LD50s, Table 10): 14 mg/kg; ED50 (S. pneumoniae 6302): 0.22 mg/kg; ED50 (P. aeruginosa 6799): < 10 mg/kg; ED50 (P. aeruginosa 6799; sc, challenge 71 LD50s, 2 treatments, Table 11): 16 mg/kg; ED50 (S. aureus Smith): 3.2 mg/kg; ED50 (S. marcescens S3): 0.03 mg/kg; ED50 (P. aeruginosa 6719; challenge 2249 LD50s, 3 treatments, Table 10): 18 mg/kg; ED50 (P. aeruginosa 6719; challenge 2290 LD50s, 2 treatments, Table 11): 15 mg/kg; ED50 (C. freundii 8ASM): 0.15 mg/kg; ED50 (E. aerogenes 8; challenge 10 LD50s, Table 11): 6.9 mg/kg; ED50 (E. aerogenes 8; challenge 24 LD50s, Table 10): 6.8 mg/kg; ED50 (P. aeruginosa 503-56): > 250 mg/kg; ED50 (K. pneumoniae HE7; challenge 750 LD50s, Table 10): < 1 mg/kg; ED50 (K. pneumoniae HE7; challenge 1000 LD50s, Table 11): 0.39 mg/kg; ED50 (S. faecalis C1): 50 mg/kg; ED50 (E. coli 387-1): 0.09 mg/kg; ED50 (P. mirabilis 190): 0.007 mg/kg; ED50 (S. schottmuelleri): < 0.5 mg/kg; ED50 (E. cloacae 214): < 10 mg/kg; ED50 (E. coli 257; Table 10): < 1 mg/kg; ED50 (E. coli 257; Table 11): < 1 mg/kg; ED50 (P. aeruginosa 6148B; challenge 4.5 LD50s, 3 treatments, Table 10): < 5 mg/kg; ED50 (P. aeruginosa 6148B; challenge 32 LD50s, 2 treatments, Table 11): 62 mg/kg; ED50 (P. aeruginosa 6148B; challenge 33 LD50s, 3 treatments, Table 10): 8 mg/kg; ED50 (K. pneumoniae 8357): 0.03 mg/kg; ED50 (E. coli 5152; challenge 2717 LD50s, Table 10): < 5 mg/kg; ED50 (E. coli 5152; challenge 4780 LD50s, Table 11): < 2 mg/kg; ED50 (P. vulgaris 100): 0.05 mg/kg; ED50 (S. marcescens SM): < 2 mg/kg; ED50 (S. pyogenes 4; challenge 3.3 LD50s, Table 11): < 2 mg/kg; ED50 (S. pyogenes 4; challenge 100 LD50s, Table 10): > 2 mg/kg

Question: How did the ED50 (E. coli 736) turn out when `CC1(C)S[C@@H]2[C@H](NC(=O)[C@H](N)c3ccccc3)C(=O)N2[C@H]1C(=O)O` [Ampicillin, ampicillin, reference compound] was run?
Answer: 5 mg/kg

Question: What about the ED50 (K. pneumoniae 503-990A) of the same compound?
Answer: 29 mg/kg

Question: What about the ED50 (K. pneumoniae 503-990A; Table 14 line (1)) of the same compound?
Answer: 58 mg/kg

Question: And the ED50 (K. pneumoniae 503-990A; Table 14 line (2))?
Answer: 10 mg/kg

Question: And the “PD50 (alone)” value (K. pneumoniae 503-990A)?
Answer: 16 mg/kg

Question: With `CC(=O)OCC1=C(C(=O)O)N2C(=O)[C@@H](NC(=O)Cc3cccs3)[C@H]2SC1` [Cephalothin, cephalothin, reference compound] as the compound, how does the ED50 (E. coli BC5524; Escherichia coli, BC5524, sc, read-out: PD50 (alone), sc) read?
Answer: < 250 mg/kg

Question: What about the “PD50 (alone)” value (E. coli BC5524; sc) of the same compound?
Answer: > 250 mg/kg

Question: What about the ED50 (E. cloacae 4633) of the same compound?
Answer: > 250 mg/kg
